Drawing on US20250179059A1 (The Regents of the University of California, priority 2021, published 2025), this text covers GI50 and IC50 for 24 compounds.

Like-named read-outs stand apart in the source and are kept apart here. Some results are limits rather than exact numbers.

Experiment [1] has as its system human SKM-1 acute myeloid leukemia cells. Kind of experiment: SKM-1 antiproliferation cell-based assay (ATPlite). Summed up:
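Log-phase cells in RPMI 1640/15% FBS were seeded at 34722 cells/mL and exposed for 4 days to nine-concentration DMSO serial dilutions in triplicate. Viability was read as ATP luminescence (ATPlite 1step), and IC50 values came from variable-slope non-linear regression.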
For orientation: Cellular ATP, detected with luciferase, serves as a proxy for viable cell number.

Experiment [2] concerns the target T1, human BRD4 bromodomain II (Homo sapiens, UniProt O60885).
T1 construct: human BRD4 bromodomain II [based on Genbank NM_058243, residues 349-460]; host or cells: E. coli
Put plainly: Bromodomain binding assay (AlphaScreen), BRD4 BDII. An outline of the steps: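 Tagged BRD4 BDI or BDII constructs, expressed in E. coli, competed against a K5/K8/K12/K16-acetylated biotin-H4 peptide. Proximity signal between bead pairs after room-temperature incubations gave concentration-response curves, from which IC50 was derived.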
On the technique in general: Bead proximity is the source of the signal in Alpha formats.

[3] abbreviates: Homo sapiens, SKM-1, SKM-1 antiproliferation assay.
Where [4] appears, read: BRD4 BDII AlphaScreen assay, read-out: BRD4 BD2 IC50.
Where [5] appears, read: Homo sapiens, SKM-1, 96 h, SKM-1 antiproliferation assay, 4 days, Table C2.
Where [6] appears, read: AlphaScreen assay, Table C2, read-out: BRD4 BDII IC50.

For `CNc1ncc(-c2nccc(-c3ccc(-n4ccn(C)c4=O)c(Cl)c3)c2O)cc1N1CCN(C(C)(C)C)CC1` [Example 986, 1-(4-(5′-(4-(tert-butyl)piperazin-1-yl)-3-hydroxy-6′-(methylamino)-[2,3′-bipyridin]-4-yl)-2-chlorophenyl)-3-methyl-1H-imidazol-2(3H)-one], in experiment [1] (setting [3]), the GI50 lay within 0.3 to 30 nM. For the same compound, the half-inhibitory concentration (IC50) in experiment [2] (setting [4]) fell in the range of 1 to 10 nM.
In the same order, the values of `Cc1cc(-c2ccc(-n3ccn(C)c3=O)c(Cl)c2)c(O)c(-c2cnc(N(C)C)c(N3CCC4(CCCN4C(C)C)C3)c2)n1` (stereo not drawn) [Example 994, 1-(2-Chloro-4-(6′-(dimethylamino)-3-hydroxy-5′-(1-isopropyl-1,7-diazaspiro[4.4]nonan-7-yl)-6-methyl-[2,3′-bipyridin]-4-yl)phenyl)-3-methyl-1H-imidazol-2(3H)-one] are 0.3 to 30 nM and 1 to 10 nM.
`Cn1ccn(-c2ccc(-c3cc(F)cc(-c4cccc(N5CC[C@](C)(N)C5)c4)c3O)cc2Cl)c1=O` [Example 749, (S)-1-(3″-(3-amino-3-methylpyrrolidin-1-yl)-3-chloro-5′-fluoro-2′-hydroxy-[1,1′:3′,1″-terphenyl]-4-yl)-3-methyl-1H-imidazol-2(3H)-one] displayed a GI50 in experiment [1] (setting [5]) of 0.3 to 30 nM. Also, the IC50 in experiment [2] (setting [6]) fell in the range of 1 to 10 nM.
For `Cn1ccn(-c2ccc(-c3cc(=O)[nH]c(-c4cccc(N5CCN(C(C)(C)C)CC5)c4)c3O)cc2Cl)c1=O` [Example 1040, 6-(3-(4-(tert-Butyl)piperazin-1-yl)phenyl)-4-(3-chloro-4-(3-methyl-2-oxo-2,3-dihydro-1H-imidazol-1-yl)phenyl)-5-hydroxypyridin-2(1H)-one], in experiment [1] (setting [3]), the GI50 fell in the range of 300 to 3000 nM. Besides, in experiment [2] (setting [4]), the 50% inhibitory concentration (IC50) is 10 to 100 nM.
The corresponding values for `Cc1cc(-c2ccc(-n3ccn(C)c3=O)c(Cl)c2)c(O)c(-c2cc(Cl)cc(N3CCN(C(C)(C)C)CC3)c2)n1` [Example 999, 1-(4-(2-(3-(4-(tert-butyl)piperazin-1-yl)-5-chlorophenyl)-3-hydroxy-6-methylpyridin-4-yl)-2-chlorophenyl)-3-methyl-1H-imidazol-2(3H)-one] are 0.3 to 30 nM and 1 to 10 nM.
Regarding `Cc1ncc(-c2cc(F)cc(-c3ccc(-n4ccn(C)c4=O)c(Cl)c3)c2O)cc1N1CC(O)(CO)C1` [Example 839, 1-(3-chloro-5′-fluoro-2′-hydroxy-3′-(5-(3-hydroxy-3-(hydroxymethyl)azetidin-1-yl)-6-methylpyridin-3-yl)-[1,1′-biphenyl]-4-yl)-3-methyl-1H-imidazol-2(3H)-one], the GI50 in experiment [1] (setting [5]) was in the range of 0.3 to 30 nM. Moreover, the IC50 in experiment [2] (setting [6]) is 0.01 to 1 nM.
The corresponding values for `Cn1ccn(-c2ccc(-c3cc(F)cc(-c4cc(N5CC[C@@H](N)C5)c5cn[nH]c5c4)c3O)cc2Cl)c1=O` [Example 593, (R)-1-(3′-(4-(3-aminopyrrolidin-1-yl)-1H-indazol-6-yl)-3-chloro-5′-fluoro-2′-hydroxy-[1,1′-biphenyl]-4-yl)-3-methyl-1H-imidazol-2(3H)-one] are 0.3 to 30 nM and 0.01 to 1 nM.
The corresponding values for `[2H]C([2H])([2H])n1ccn(-c2ccc(-c3cc(F)cc(-c4ccnc(N5CCC[C@H](N)C5)c4)c3O)cc2Cl)c1=O` [Example 452, (S)-1-(3′-(2-(3-aminopiperidin-1-yl)pyridin-4-yl)-3-chloro-5′-fluoro-2′-hydroxy-[1,1′-biphenyl]-4-yl)-3-deuteromethyl-1H-imidazol-2(3H)-one] are 0.3 to 30 nM and 0.01 to 1 nM.
In experiment [1] (setting [3]), `COc1ncc(-c2cc(F)cc(-c3ccc(-n4ccn(C)c4=O)c(Cl)c3)c2O)cc1N1CC[C@@]2(CCCN2C(C)C)C1` [Example 957, (S)-1-(3-chloro-5′-fluoro-2′-hydroxy-3′-(5-(1-isopropyl-1,7-diazaspiro[4.4]nonan-7-yl)-6-methoxypyridin-3-yl)-[1,1′-biphenyl]-4-yl)-3-methyl-1,3-dihydro-2H-imidazol-2-one] showed a GI50 of 0.3 to 30 nM. The IC50 in experiment [2] (setting [4]) was in the range of 0.01 to 1 nM.
In the same order, the values of `COc1ncc(-c2nc(C)cc(-c3ccc(-n4ccn(C)c4=O)c(Cl)c3)c2O)cc1N1CCC2(CCCN2C(C)C)C1` (stereo not drawn) [Example 972, 1-(2-chloro-4-(3-hydroxy-5′-(1-isopropyl-1,7-diazaspiro[4.4]nonan-7-yl)-6′-methoxy-6-methyl-[2,3′-bipyridin]-4-yl)phenyl)-3-methyl-1H-imidazol-2(3H)-one] are 0.3 to 30 nM and 0.01 to 1 nM.
As to `Cn1ccn(-c2ccc(-c3cc(F)cc(-c4cc(N5CCN6CCCC6C5)c5cn[nH]c5c4)c3O)cc2Cl)c1=O` (stereo not drawn) [Example 606, 1-(3-chloro-5′-fluoro-3′-(4-(hexahydropyrrolo[1,2-a]pyrazin-2(1H)-yl)-1H-indazol-6-yl)-2′-hydroxy-[1,1′-biphenyl]-4-yl)-3-methyl-1H-imidazol-2(3H)-one], the GI50 in experiment [1] (setting [5]) is 0.3 to 30 nM. Besides, in experiment [2] (setting [6]), the IC50 lay in the range of 0.01 to 1 nM.
In the same order, the values of `Cn1ccn(-c2ccc(-c3cc(F)cc(-c4ccnc(N5CCCC(C)(N)C5)c4)c3O)cc2Cl)c1=O` (stereo not drawn) [Example 744, 1-(3′-(2-(3-amino-3-methylpiperidin-1-yl)pyridin-4-yl)-3-chloro-5′-fluoro-2′-hydroxy-[1,1′-biphenyl]-4-yl)-3-methyl-1H-imidazol-2(3H)-one] are 0.3 to 30 nM and 0.01 to 1 nM.
`Cn1ccn(-c2ccc(-c3cc(F)cc(-c4ccnc(N5CC(F)(F)[C@@](C)(O)C5)c4)c3O)cc2Cl)c1=O` [Example 882]: the GI50 in experiment [1] (SKM-1 antiproliferation assay) is 0.3 to 30 nM. Further, the IC50 in experiment [2] (setting [4]) is 1 to 10 nM.
In the case of `Cn1ccn(-c2ccc(-c3cc(F)cc(-c4ccnc(N5CCC6(CCC(=O)N6)C5)c4)c3O)cc2Cl)c1=O` (stereo not drawn) [Example 736, 7-(4-(3′-chloro-5-fluoro-2-hydroxy-4′-(3-methyl-2-oxo-2,3-dihydro-1H-imidazol-1-yl)-[1,1′-biphenyl]-3-yl)pyridin-2-yl)-1,7-diazaspiro[4.4]nonan-2-one], the GI50 in experiment [1] (setting [5]) lay in the range of 0.3 to 30 nM. Further, in experiment [2] (setting [6]), the IC50 was 0.01 to 1 nM.
The corresponding values for `O=C1CCC(=O)N1c1ccc(-c2cccc(-c3cncc(N4CCNCC4)c3)c2O)cc1F` [Example 257, 1-(3-fluoro-2′-hydroxy-3′-(5-(piperazin-1-yl)pyridin-3-yl)-[1,1′-biphenyl]-4-yl)pyrrolidine-2,5-dione] are at least 3000 nM and over 100 nM.
The corresponding values for `CC(=O)Nc1ccc(-c2cc(F)cc(-c3ccnc(N4CCNCC4)c3)c2O)cc1Cl` [Example 222, N-(3-chloro-5′-fluoro-2′-hydroxy-3′-(2-(piperazin-1-yl)pyridin-4-yl)-[1,1′-biphenyl]-4-yl)acetamide] are 300 to 3000 nM and 1 to 10 nM.
As to `Cn1ccn(-c2ccc(-c3cc(F)cc(-c4cc(N5CCN(C(C)(C)C)CC5)ccn4)c3O)cc2Cl)c1=O` [Example 953, 1-(3′-(4-(4-(tert-butyl)piperazin-1-yl)pyridin-2-yl)-3-chloro-5′-fluoro-2′-hydroxy-[1,1′-biphenyl]-4-yl)-3-methyl-1H-imidazol-2(3H)-one], the GI50 in experiment [1] (setting [3]) fell in the range of 300 to 3000 nM. Moreover, the IC50 in experiment [2] (setting [4]) was over 100 nM.
In experiment [1] (setting [5]), `Cn1ccn(-c2ccc(-c3cc(F)cc(-c4ccnc(N5CCN(CC(C)(C)C#N)CC5)c4)c3O)cc2Cl)c1=O` [Example 652, 3-(4-(4-(3′-chloro-5-fluoro-2-hydroxy-4′-(3-methyl-2-oxo-2,3-dihydro-1H-imidazol-1-yl)-[1,1′-biphenyl]-3-yl)pyridin-2-yl)piperazin-1-yl)-2,2-dimethylpropanenitrile] displayed a concentration for 50% growth inhibition (GI50) of 30 to 300 nM. In experiment [2] (setting [6]), the concentration for half-maximal inhibition (IC50) is 0.01 to 1 nM.
The corresponding values for `O=C1CCCN1c1ccc(-c2cc(F)cc(-c3ccnc(N4CC5(CNC5)C4)c3)c2O)cc1F` [Example 285, 1-(3′-(2-(2,6-diazaspiro[3.3]heptan-2-yl)pyridin-4-yl)-3,5′-difluoro-2′-hydroxy-[1,1′-biphenyl]-4-yl)pyrrolidin-2-one] are 300 to 3000 nM and 10 to 100 nM.
For `C[C@@H]1CN(c2cc(-c3cc(F)cc(-c4ccc(-n5ccn(C)c5=O)c(Cl)c4)c3O)cc(=O)n2C)CCN1` [Example 689, (R)-4-(3′-chloro-5-fluoro-2-hydroxy-4′-(3-methyl-2-oxo-2,3-dihydro-1H-imidazol-1-yl)-[1,1′-biphenyl]-3-yl)-1-methyl-6-(3-methylpiperazin-1-yl)pyridin-2(1H)-one], the GI50 in experiment [1] (setting [5]) is 0.3 to 30 nM. Further, in experiment [2] (setting [6]), the IC50 lay in the range of 0.01 to 1 nM.
For `Cn1ccn(-c2ccc(-c3cc(F)cc(-c4ccnc(N5CCN(C6COC6)CC5)c4)c3O)cc2Cl)c1=O` [Example 528, 1-(3-chloro-5′-fluoro-2′-hydroxy-3′-(2-(4-(oxetan-3-yl)piperazin-1-yl)pyridin-4-yl)-[1,1′-biphenyl]-4-yl)-3-methyl-1H-imidazol-2(3H)-one], in experiment [1] (setting [5]), the GI50 is 0.3 to 30 nM. In addition, the IC50 in experiment [2] (setting [6]) fell in the range of 1 to 10 nM.
On to `CC(=O)Nc1ccc(-c2cccc(-c3ccnc(N4CCC(O)C4)c3)c2O)cc1F` (stereo not drawn) [Example 199, N-(3-fluoro-2′-hydroxy-3′-(2-(3-hydroxypyrrolidin-1-yl)pyridin-4-yl)-[1,1′-biphenyl]-4-yl)acetamide], for which the GI50 in experiment [1] (setting [5]) was 300 to 3000 nM. For the same compound, the IC50 in experiment [2] (setting [6]) is 1 to 10 nM.
The corresponding values for `Cn1ccn(-c2ccc(-c3cc(F)cc(-c4ccnc(N5CC[C@H](C(N)=O)C5)c4)c3O)cc2Cl)c1=O` [Example 760] are 30 to 300 nM and 0.01 to 1 nM.
`Cn1ccn(-c2ccc(-c3cc(F)cc(-c4cccc(-c5ccc(O)cc5)c4)c3O)cc2Cl)c1=O` [Example 857] returned a GI50 in experiment [1] (setting [3]) of 300 to 3000 nM. In experiment [2] (setting [4]), the IC50 is 10 to 100 nM.

As a reminder, the GI50 is the concentration giving 50% growth inhibition. In general, IC50 refers to the point on the concentration scale where inhibition reaches its midpoint.
